Reference: patent publication US20120083522A1, “MODULATION OF INFLAMMATORY RESPONSES BY FACTOR XI” (Isis Pharmaceuitcals, inc., priority 2009, published 2012)
In the oligonucleotide strings, read from the 5' end, every base follows the letter of its sugar. An asterisk marks phosphorothioate; unmarked linkages are phosphodiester. Other units and linkages are bracketed, terminal groups are in braces. A string of capitals states the bases alone. e = 2'-O-(2-methoxyethyl) (MOE); [5mC] = 5-methylcytosine; d = 2'-deoxy (DNA)

How the values were obtained:
Type in all cases: in vivo
[1] = Tolerability in CD1 mice: body and organ weight (Example 25); conditions: 50 mg/kg s.c. twice per week for 6 weeks
[2] = Tolerability in CD1 mice: liver function (Example 25); conditions: 50 mg/kg s.c. twice per week for 6 weeks, plasma
[3] = Tolerability in CD1 mice: kidney function (Example 25); conditions: 50 mg/kg s.c. twice per week for 6 weeks, plasma
[4] = Tolerability in CD1 mice: hematology assays (Example 25); set-up: RBC / WBC / Neutrophil / Lymphocyte / Platelets: unit not given here; conditions: 50 mg/kg s.c. twice per week for 6 weeks, blood

## ISIS 445503: microwalk gapmer of Table 51 (antisense eG*e[5mC]*eA*eT*eT*eG*dG*dT*dG*d[5mC]*dA*d[5mC]*dA*dG*eT*eT*eT*e[5mC]*eT*eG)
[1]
  Body weight (increase over PBS control weight before start of treatment): 9 g
[1]; end of study
  Kidney weight as percentage of body weight: 1.4%
  Liver weight as percentage of body weight: 8%
  Spleen weight as percentage of body weight: 0.6%
[2]
  ALT: 1314 IU/L
  AST: 852 IU/L
  Albumin: 3.4 mg/dL
  Bilirubin: 0.28 mg/dL
[3]
  BUN: 29 mg/dL
[4]
  HCT: 46%
  Hemoglobin: 13.6 g/dL
  Lymphocyte: 6436
  Neutrophil: 1475
  Platelets: 309
  RBC: 9.2
  WBC: 8
